Data reported in ChEMBL document CHEMBL1201862, “PubChem BioAssay data set” (2004).
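All cell lines were grown in 96-well plates and treated with compound for 48 hours. Here, GI50 denotes the concentration required for 50% inhibition of growth.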 Activity calls are given as the source filed them. Cut-off read from the data, not from the text of the source: active = GI50 up to about 1.1 µM and inactive = higher.

What was measured:
Test in all cases: NCI anticancer screen, dose series, 48 h
TK-10 = system: TK-10
SK-MEL-5 = system: SK-MEL-5
RPMI-8226 = system: RPMI-8226
SF-539 = system: SF-539
XF498 = system: XF498
HL-60 = system: HL-60
SNB-78 = system: SNB-78
UACC-62 = system: UACC-62
EKVX = system: EKVX
UO-31 = system: UO-31
SF-295 = system: SF-295
A549 = system: A549
HCC 2998 = system: HCC 2998
DLD-1 = system: DLD-1
OVCAR-4 = system: OVCAR-4
HOP-62 = system: HOP-62

Measured: GI50

C[Si](C)(C)/C=C\CCCN1C(=O)CCC1=O
inactive: TK-10 > 100 µM | SK-MEL-5 93.8 µM | RPMI-8226 > 100 µM | SF-539 > 100 µM | XF498 > 100 µM | HL-60 > 100 µM | SNB-78 > 100 µM | UACC-62 > 100 µM | EKVX > 100 µM | UO-31 > 100 µM | SF-295 > 100 µM | A549 > 100 µM | HCC 2998 > 100 µM

O=C1c2ccc(O)c(O)c2C(=O)c2c(O)ccc(O)c21 [QUINALIZARIN]
inactive: TK-10 33.8 µM | RPMI-8226 28.2 µM | SF-539 21.4 µM | DLD-1 32.5 µM | SNB-78 41.3 µM | UACC-62 21.4 µM | OVCAR-4 2.1 µM | EKVX 26.9 µM | HOP-62 26.8 µM | UO-31 21.3 µM | SF-295 27.1 µM | A549 21.1 µM | HCC 2998 23.3 µM

CC(c1ccccc1)C(O)S(=O)(=O)O (stereo not given)
inactive: TK-10 > 100 µM | RPMI-8226 > 100 µM | SF-539 > 100 µM | XF498 > 100 µM | SNB-78 > 100 µM | UACC-62 > 100 µM | OVCAR-4 > 100 µM | EKVX > 100 µM | UO-31 > 100 µM | SF-295 > 100 µM | A549 > 100 µM

N#Cc1cccc(NC(=O)c2ccc(C(=O)O)c(C(=O)c3ccc(C(=O)O)c(C(=O)Nc4cccc(C#N)c4)c3)c2)c1
inactive: TK-10 > 100 µM | SK-MEL-5 > 100 µM | RPMI-8226 > 100 µM | SF-539 > 100 µM | XF498 > 100 µM | HL-60 > 100 µM | DLD-1 > 100 µM | SNB-78 > 100 µM | UACC-62 > 100 µM | OVCAR-4 > 100 µM | EKVX > 100 µM | HOP-62 > 100 µM | UO-31 > 100 µM | SF-295 > 100 µM | A549 > 100 µM

Cc1cc([N+](=O)[O-])ccc1NC(=O)C(=O)C(C(=O)c1ccccc1-c1ccccc1)C1OC(=O)c2ccccc21 (stereo not given)
inactive: TK-10 17.8 µM | SK-MEL-5 15 µM | RPMI-8226 24 µM | SF-539 9.02 µM | XF498 5.93 µM | SNB-78 17.9 µM | UACC-62 4.11 µM | OVCAR-4 26.2 µM | EKVX > 10 µM | UO-31 16.6 µM | SF-295 19.2 µM | A549 10.8 µM | HCC 2998 15.5 µM

O=C(CSSCC(=O)OCCS(=O)(=O)Nc1ccc(Br)cc1)OCCS(=O)(=O)Nc1ccc(Br)cc1
inactive: TK-10 20.7 µM | SK-MEL-5 11.8 µM | RPMI-8226 10 µM | SF-539 10.2 µM | HL-60 14.7 µM | DLD-1 15.7 µM | SNB-78 17.1 µM | UACC-62 13 µM | OVCAR-4 8.75 µM | EKVX 26.5 µM | HOP-62 > 10 µM | UO-31 28.6 µM | SF-295 12.2 µM | A549 19 µM | HCC 2998 7.8 µM

CCOC(=O)/C(C#N)=C\Sc1ccccc1
inactive: TK-10 32.4 µM | SK-MEL-5 22.3 µM | RPMI-8226 13.7 µM | SF-539 15.8 µM | XF498 28.1 µM | HL-60 7.23 µM | DLD-1 18.1 µM | SNB-78 28.1 µM | UACC-62 16.1 µM | OVCAR-4 26.7 µM | EKVX 27.2 µM | HOP-62 36.1 µM | UO-31 9.2 µM | SF-295 20 µM | A549 10.4 µM

CCOC(=O)C(=Cc1cc(OC)ccc1OC)C(=O)OCC
inactive: TK-10 > 10 µM | SK-MEL-5 4.16 µM | RPMI-8226 3.44 µM | SF-539 4.1 µM | XF498 11.2 µM | HL-60 1.96 µM | DLD-1 8.41 µM | UACC-62 1.83 µM | OVCAR-4 7.89 µM | EKVX 10.6 µM | HOP-62 10.4 µM | SF-295 12.4 µM | A549 6.3 µM | HCC 2998 20 µM

c1ccc(NCn2cnc3ccccc32)cc1
inactive: TK-10 > 100 µM | SK-MEL-5 > 100 µM | RPMI-8226 25.9 µM | SF-539 > 100 µM | XF498 > 100 µM | DLD-1 29.2 µM | SNB-78 > 100 µM | UACC-62 7.45 µM | OVCAR-4 > 100 µM | EKVX > 100 µM | UO-31 > 100 µM | SF-295 > 100 µM | A549 > 100 µM

C1CC[N+]23CCCC[N+]2(C1)CCCC3 (stereo not given)
inactive: TK-10 > 100 µM | SK-MEL-5 > 100 µM | RPMI-8226 > 100 µM | HL-60 > 100 µM | DLD-1 > 100 µM | SNB-78 > 100 µM | UACC-62 > 100 µM | OVCAR-4 > 100 µM | EKVX > 100 µM | HOP-62 > 100 µM | UO-31 > 100 µM | SF-295 > 100 µM | A549 > 100 µM | HCC 2998 > 100 µM

COc1cc(/C=N/N=C(\N)NO)cc(Cl)c1O
inactive: SK-MEL-5 33.4 µM | RPMI-8226 > 100 µM | SF-539 34.4 µM | DLD-1 71.1 µM | SNB-78 47.4 µM | UACC-62 42.4 µM | OVCAR-4 76.9 µM | EKVX 30.9 µM | HOP-62 35.7 µM | UO-31 23.9 µM | SF-295 58.7 µM | A549 41.8 µM | HCC 2998 45.3 µM

Cc1ccccc1-n1c(=O)sc2c(=O)n(-c3ccccc3)c(=S)[nH]c21
inactive: SK-MEL-5 > 100 µM | RPMI-8226 > 100 µM | SF-539 > 100 µM | HL-60 > 100 µM | DLD-1 > 100 µM | SNB-78 > 100 µM | UACC-62 > 100 µM | OVCAR-4 > 100 µM | EKVX > 100 µM | HOP-62 > 100 µM | UO-31 > 100 µM | SF-295 > 100 µM | A549 > 100 µM | HCC 2998 > 100 µM

C=C1CC(CC)(CCN2C(=O)c3ccccc3C2=O)OC1=O (stereo not given)
inactive: TK-10 17.7 µM | SK-MEL-5 12.9 µM | RPMI-8226 22.7 µM | SF-539 18.9 µM | XF498 13.4 µM | HL-60 9.2 µM | DLD-1 17.9 µM | UACC-62 13.3 µM | OVCAR-4 14.2 µM | EKVX 17 µM | HOP-62 35.9 µM | UO-31 19.7 µM | SF-295 29.2 µM | A549 27.7 µM | HCC 2998 17.7 µM

CC(=O)NS(=O)(=O)c1ccc(NC(=O)COC(=O)c2cccc3c(=O)c4ccccc4[nH]c23)cc1
inactive: TK-10 > 100 µM | SK-MEL-5 > 100 µM | RPMI-8226 > 100 µM | SF-539 > 100 µM | XF498 > 100 µM | HL-60 > 100 µM | UACC-62 > 100 µM | EKVX > 100 µM | HOP-62 > 100 µM | UO-31 > 100 µM | SF-295 > 100 µM | A549 > 100 µM
